Measurements published in patent US5281580A, “Calcitonin-containing emulsion for nasal administration” (Toyo Jozo Company, Ltd., priority 1990, dated 1994).
Blank lines part the entries; values can stand above or below the molecule they belong to.

Tests used:
Format in all cases: physicochemical
[1] = Turbidity just after preparation by extinction, index of emulsifiability (Example 1)
Method: (§1) […] The mixture was agitated under 15,000 rpm for 1 minute by Biomixer (NIHON SEIKI SEISAKUSHO) to prepare each emulsion. The state of dispersion just after the preparation and after 3 days standing at room temperature was observed. The turbidity just after the preparation was measured by extinction at 650 nm, and used as the index of emulsifiability.

[2] = Emulsifiability and stability of emulsions: state of dispersion observed (Example 1); conditions: for Just after preparation (state of dispersion): 0.1 g azacycloalkane derivative + 5.0 ml; for After 3 days standing (state of dispersion): room temperature
Method: Using 1-[2-(decylthio)ethyl]azacyclopentan-2-one chosen from the azacycloalkane derivatives, and three emulsifying agents as follows, emulsifiabilities and stabilities of the emulsions were examined:
as §1

[3] = Stabilities of emulsions relating to added concentration of the azacycloalkane derivative (Example 2); conditions: for Observation after 3 days standing / Observation after 7 days standing: room temperature
Method: Each 5 ml of a 1% (W/V) solution preliminarily prepared by dissolving dispotassium glycyrrhizate in distilled water was poured in each of 8 10-ml-test tubes, and thereto was added 1[2-(decylthio)ethyl] azacyclopentan-2-one chosen from the azacycloalkane derivatives so as to make a concentration ranging from 0 to 10%. Then, the mixture was agitated for 1 minute using Biomixer (NIHON SEIKI SEISAKUSHO) (15,000 rpm), to prepare each emulsion. The state of dispersion just after the preparation,or after 3 days or 7 days standing at room temperature was observed.

[4] = concentration 1.0% in 1% (W/V) dipotassium glycyrrhizate
[5] = concentration 2.0% in 1% (W/V) dipotassium glycyrrhizate

Turbidity (650 nm) ([1]; emulsifying agent 0.1%): 1.284
Turbidity (650 nm) ([1]; emulsifying agent 0.5%): 0.459
Turbidity (650 nm) ([1]; emulsifying agent 1.0%): 0.437
Turbidity (650 nm) ([1]; emulsifying agent 2.0%): 0.405
Turbidity (650 nm) ([1]; emulsifying agent 3.0%): 0.346
Turbidity (650 nm) ([1]; emulsifying agent 4.0%): 0.006
Turbidity (650 nm) ([1]; emulsifying agent 5.0%): 0.006
Just after preparation (state of dispersion) ([2]; emulsifying agent 0.5%): White clear
After 3 days standing (state of dispersion) ([2]; emulsifying agent 0.5%): White clear
Just after preparation (state of dispersion) ([2]; emulsifying agent 1.0%): White clear
After 3 days standing (state of dispersion) ([2]; emulsifying agent 1.0%): White clear
Just after preparation (state of dispersion) ([2]; emulsifying agent 2.0%): White clear
After 3 days standing (state of dispersion) ([2]; emulsifying agent 2.0%): White clear
Just after preparation (state of dispersion) ([2]; emulsifying agent 3.0%): White clear
After 3 days standing (state of dispersion) ([2]; emulsifying agent 3.0%): White clear
emulsification (in words) ([2]; emulsifying agent at 0.1-5%): good emulsification
dissolution (in words) ([2]; emulsifying agent at 4-5%): full dissolution
SMILES: CC1(C)[C@@H](O[C@H]2O[C@H](C(=O)[O-])[C@@H](O)[C@H](O)[C@H]2O[C@@H]2O[C@H](C(=O)[O-])[C@@H](O)[C@H](O)[C@H]2O)CC[C@]2(C)[C@H]3C(=O)C=C4[C@@H]5C[C@@](C)(C(=O)O)CC[C@]5(C)CC[C@@]4(C)[C@]3(C)CC[C@@H]12.[K+].[K+] [dipotassium glycyrrhizate]

Observation just after preparation [3, 4]: White clear
Observation after 3 days standing [3, 4]: White clear
Observation after 7 days standing [3, 4]: White clear
Observation just after preparation [3, 5]: White clear
Observation after 3 days standing [3, 5]: White clear
Observation after 7 days standing [3, 5]: White clear
SMILES: CCCCCCCCCCSCCN1CCCC1=O [1-[2-(decylthio)ethyl]azacyclopentan-2-one]
emulsification and stability (in words) ([3]; concentration 0.01% to 10%, using 1% dipotassium glycyrrhizate): exhibited good emulsification and gave a stable emulsion
